Test results as given in paper PMC11249646, “Small-Molecule Disruptors of the Interaction between Calcium- and Integrin-Binding Protein 1 and Integrin αIIbβ3 as Novel Antiplatelet Agents” (ACS Pharmacology & Translational Science, 2024).
pIC50: −log10 of the molar value. Where two headings read alike, the source gives them in different places.

Experiments:
Assay type in all cases: binding
[1] = biological target: T1, GST-CIB1 : F-scrambled peptide (Homo sapiens, UniProt Q99828); assay: FP scrambled-peptide counter screen, 1536-well format; settings: for COUNTERSCREEN Efficacy (%) / COUNTERSCREEN Confirm? / COUNTERSCREEN Curve Class / pIC50: scrambled-peptide counterscreen; for COUNTERSCREEN Confirm?: YES/NO call; for pIC50: read-out: COUNTERSCREEN IC50
T1 construct: made in house; host or cells: BL-21 plus RIL cells (E. coli)
T1 sequence (Q99828 1-191): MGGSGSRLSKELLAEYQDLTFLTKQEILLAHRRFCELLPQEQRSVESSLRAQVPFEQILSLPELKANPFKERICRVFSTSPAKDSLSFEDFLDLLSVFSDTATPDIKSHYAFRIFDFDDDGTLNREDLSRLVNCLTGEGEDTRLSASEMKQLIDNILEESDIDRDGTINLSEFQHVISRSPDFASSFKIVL

[2] = biological target: T2, CIB1 and αIIb interaction (CIB1-GST : F-αIIb peptide) (Homo sapiens, UniProt Q99828); assay: FP assay, 1536-well qHTS format (primary and confirmatory screen); settings: for CONFIRMATORY SCREEN Confirm?: YES/NO call; for CONFIRMATORY SCREEN Efficacy (%) / Efficacy (%): negative = inhibition
T2 construct: made in house; host or cells: BL-21 plus RIL cells (E. coli)
T2 sequence (Q99828 1-191): T1 sequence (Q99828 1-191)

[3] = biological target: T3, CIB1 and αIIb interaction (GST-CIB1 : F-αIIb peptide) (Homo sapiens, UniProt Q99828); assay: FP assay, 384-well format (screen); design: 384-well SCREEN Efficacy (%): concentration or dose not given beside the values; settings: F-αIIb peptide; for 384-well SCREEN Confirm?: YES/NO; for pIC50: read-out: 384-well SCREEN IC50
T3 construct: made in house; host or cells: BL-21 plus RIL cells (E. coli)
T3 sequence (Q99828 1-191): T1 sequence (Q99828 1-191)

[4] = biological target: T1, GST-CIB1 : F-scrambled peptide; assay: FP scrambled-peptide counter screen, 384-well format; settings: F-scrambled peptide; for pIC50: read-out: 384-well COUNTERSCREEN IC50; for 384-well COUNTERSCREEN Confirm?: *: Curve in opposite direction
[5] = confirmatory screen, qHTS curve class, negative sign = inhibitory curve
[6] = confirmatory screen, read-out: CONFIRMATORY SCREEN IC50
[7] = qHTS primary screen hits, Table S2
[8] = qHTS primary screen hits, Table S2, read-out: IC50
[9] = qHTS FP screen hits, Table S2, one class per curve where COUNT > 1, negative sign = inhibitory curve
[10] = qHTS FP screen hits, Table S2, read-out: IC50

Row | Compound | COUNTERSCREEN Efficacy (%) [1] | COUNTERSCREEN Confirm? [1] | COUNTERSCREEN Curve Class ([1]; qHTS curve class) | CONFIRMATORY SCREEN Confirm? ([2]; confirmatory screen) | CONFIRMATORY SCREEN Curve Class [2, 5] | CONFIRMATORY SCREEN Efficacy (%) ([2]; confirmatory screen) | pIC50 [2, 6] | Efficacy (%) [2, 7] | pIC50 [2, 8] | 384-well SCREEN Efficacy (%) [3] | 384-well SCREEN Confirm? [3] | pIC50 [3] | 384-well COUNTERSCREEN Efficacy (%) [4] | pIC50 [4] | Efficacy (%) ([2]; qHTS FP screen hits, Table S2) | pIC50 [2, 10] | 384-well COUNTERSCREEN Confirm? [4] | pIC50 [1] | other results
1 | O=C(CN(c1cccc(Br)c1)S(=O)(=O)c1ccccc1)NN=CC1=CC(=[N+]([O-])O)C=CC1=O.O=C(O)C(F)(F)F [NCGC00248455-01] | -13% | YES | 4 | YES | -2.1 | -91% | 4.50 | -62% | 4.75 | 40% | YES | 4.95 | 52% | 4.80 |  |  |  |  | Curve Class ([2]; qHTS primary screen hits, Table S2, negative sign = inhibitory curve): -2.2
2 | N#Cc1cnc(NS(=O)(=O)c2ccc(NC(=O)Cc3ccc(Cl)c(Cl)c3)cc2)s1.O=C(O)C(F)(F)F [NCGC00250147-02] | 20% | YES | 4 | YES | -1.2 | -48% | 5.20 |  |  | 42% | YES | 5.10 | 25% | < 3.92 | -40% | 5.25 | YES |  | Curve Class [2, 9]: -1.2
3 | Cl.NC(CO)(CO)CCc1ccc(Sc2cccc(OCc3ccccc3)c2)cc1Cl [NCGC00250388-02] | -28% | YES | 4 | YES | -2.4 | -80% | 4.30 | -71% | 4.10 | 57% | YES | 4.50 | 17% | < 3.92 |  |  | YES |  | Curve Class ([2]; qHTS primary screen hits, Table S2, negative sign = inhibitory curve, several classes where COUNT > 1): -2.2
4 | Cc1cc2c(C(C)C)c(O)c(O)c(C=O)c2c(O)c1-c1c(C)cc2c(C(C)C)c(O)c(O)c(C=O)c2c1O [NCGC00261532-01] |  |  |  |  |  |  |  |  |  | 90% | YES | 5.57 | 60% | 4.48 |  |  | YES |  | Efficacy (%) (counterscreen) ([1]; counterscreen): -63%; Curve Class (counterscreen) ([1]; counterscreen, qHTS curve class, negative sign = inhibitory curve): -1.2; IC50 ([1]; counterscreen, read-out: IC50 [μM] (counterscreen)): 7.1 µM; Efficacy (%) (confirmatory screen) ([2]; confirmatory screen): -70%; Confirm? (confirmatory screen) ([2]; confirmatory screen, YES/NO): YES; Curve Class (confirmatory screen) [2, 5]: -1.4; IC50 ([2]; confirmatory screen, read-out: IC50 [μM] (confirmatory screen)): 2.8 µM
5 | Cc1ccc(S(=O)(=O)Nc2cnccc2C(=O)Nc2nc(-c3ccccc3)cs2)cc1.O=C(O)C(F)(F)F [NCGC00262386-01] | -51% | YES | -3 | YES | -1.2 | -53% | 4.85 | -42% | 4.56 | 29% | YES | 4.79 | 42% | < 3.92 |  |  | YES | 4.05 | 
6 | COc1ccc(C(=O)Nc2nc(-c3ccccc3)cs2)c(NS(=O)(=O)c2ccc(C)cc2)c1.O=C(O)C(F)(F)F [NCGC00262390-01] | 92% | YES |  | YES | -1.2 | -60% | 4.95 |  |  | 24% |  | < 3.92 | 102% | 4.50 | -22% | 4.75 |  | 4.15 | 
7 | O=c1sc2ccccc2c(O)c1C1CC(c2ccc(-c3ccc(Br)cc3)cc2)Cc2ccccc21 (stereo not shown) [NCGC00262959-01] | 118% | YES |  | YES | -1.4 | -49% | 5.15 |  |  | 87% |  | < 3.92 | 156% | 4.60 | -38% | 4.75 |  | 4.10 | Curve Class [2, 9]: -1.2
